According to ChEMBL document CHEMBL1201862, “PubChem BioAssay data set” (2004):
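Where inhibition never reached the appropriate level, the endpoint shown equals the highest concentration tested. Otherwise, values were interpolated linearly from a five-concentration, 48-hour dose response in 96-well plates. GI50 marks 50% less growth.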 Calls of active or inactive are those of the source. No stated cut-off is given here; in the data, active = GI50 up to about 1.1 µM and inactive = higher.

Columns and labels:
Experiment in all cases: growth of human tumour cells (NCI), 48 h
786-0 = tested on: 786-0
A498 = tested on: A498
A549 = tested on: A549
ACHN = tested on: ACHN
BT-549 = tested on: BT-549
CAKI-1 = tested on: CAKI-1
CCRF-CEM = tested on: CCRF-CEM
COLO 205 = tested on: COLO 205
DU-145 = tested on: DU-145
EKVX = tested on: EKVX
HCC 2998 = tested on: HCC 2998
HCT-116 = tested on: HCT-116
HCT-15 = tested on: HCT-15
HL-60 = tested on: HL-60
HOP-62 = tested on: HOP-62
HOP-92 = tested on: HOP-92
HT-29 = tested on: HT-29
Hs-578T = tested on: Hs-578T
IGROV-1 = tested on: IGROV-1
K562 = tested on: K562
KM12 = tested on: KM12
LOX IMVI = tested on: LOX IMVI
M14 = tested on: M14
MCF7 = tested on: MCF7
MDA-MB-231 = tested on: MDA-MB-231
MDA-MB-435 = tested on: MDA-MB-435
MDA-N = tested on: MDA-N
MOLT-4 = tested on: MOLT-4
Malme-3M = tested on: Malme-3M
NCI-H226 = tested on: NCI-H226
NCI-H23 = tested on: NCI-H23
NCI-H460 = tested on: NCI-H460
NCI-H522 = tested on: NCI-H522
NCI/ADR-RES = tested on: NCI/ADR-RES
OVCAR-3 = tested on: OVCAR-3
OVCAR-4 = tested on: OVCAR-4
OVCAR-5 = tested on: OVCAR-5
OVCAR-8 = tested on: OVCAR-8
PC-3 = tested on: PC-3
RPMI-8226 = tested on: RPMI-8226
RXF 393 = tested on: RXF 393
SF-268 = tested on: SF-268
SF-295 = tested on: SF-295
SF-539 = tested on: SF-539
SK-MEL-2 = tested on: SK-MEL-2
SK-MEL-5 = tested on: SK-MEL-5
SK-OV-3 = tested on: SK-OV-3
SN12C = tested on: SN12C
SNB-19 = tested on: SNB-19
SR = tested on: SR
SW-620 = tested on: SW-620
T47D = tested on: T47D
TK-10 = tested on: TK-10
U-251 = tested on: U-251
UACC-257 = tested on: UACC-257
UACC-62 = tested on: UACC-62
UO-31 = tested on: UO-31
SK-MEL-28 = tested on: SK-MEL-28
SNB-75 = tested on: SNB-75

`CCC(C#N)NC(=O)NC(C#N)CC` (stereo not given) was tested, and the GI50 (786-0) was > 100 µM (inactive), the GI50 (A498) was > 100 µM (inactive) and the GI50 (A549) was 77.3 µM (inactive). The GI50 (ACHN) was > 100 µM (inactive), the GI50 (BT-549) was > 100 µM (inactive) and the GI50 (CAKI-1) was > 100 µM (inactive). For the same compound, the GI50 (CCRF-CEM) was > 100 µM (inactive), the GI50 (COLO 205) was > 100 µM (inactive) and the GI50 (DU-145) was > 100 µM (inactive). For the same compound, the GI50 (EKVX) was > 100 µM (inactive), the GI50 (HCC 2998) was > 100 µM (inactive) and the GI50 (HCT-116) was > 100 µM (inactive). For the same compound, the GI50 (HCT-15) was greater than 100 µM, the GI50 (HL-60) was > 100 µM (inactive) and the GI50 (HOP-62) was > 100 µM (inactive). The GI50 (HOP-92) was 31.7 µM (inactive), the GI50 (HT-29) was > 100 µM (inactive) and the GI50 (Hs-578T) was > 100 µM (inactive). The GI50 (IGROV-1) was > 100 µM (inactive), the GI50 (K562) was 50.9 µM (inactive) and the GI50 (KM12) was > 100 µM (inactive). The GI50 (LOX IMVI) was > 100 µM (inactive), the GI50 (M14) was > 100 µM (inactive) and the GI50 (MCF7) was > 100 µM (inactive). The GI50 (MDA-MB-231) was > 100 µM (inactive), the GI50 (MDA-MB-435) was > 100 µM (inactive) and the GI50 (MDA-N) was > 100 µM (inactive). The GI50 (MOLT-4) was 28.5 µM (inactive), the GI50 (Malme-3M) was > 100 µM (inactive) and the GI50 (NCI-H226) was > 100 µM (inactive). The GI50 (NCI-H23) was > 100 µM (inactive), the GI50 (NCI-H460) was > 100 µM (inactive) and the GI50 (NCI-H522) was > 100 µM (inactive). For the same compound, the GI50 (NCI/ADR-RES) was > 100 µM (inactive), the GI50 (OVCAR-3) was > 100 µM (inactive) and the GI50 (OVCAR-4) was 33.6 µM (inactive). For the same compound, the GI50 (OVCAR-5) was > 100 µM (inactive), the GI50 (OVCAR-8) was > 100 µM (inactive) and the GI50 (PC-3) was 91.8 µM (inactive). For the same compound, the GI50 (RPMI-8226) was > 100 µM (inactive), the GI50 (RXF 393) was > 100 µM (inactive) and the GI50 (SF-268) was > 100 µM (inactive). For the same compound, the GI50 (SF-295) was > 100 µM (inactive), the GI50 (SF-539) was > 100 µM (inactive) and the GI50 (SK-MEL-2) was > 100 µM (inactive). For the same compound, the GI50 (SK-MEL-5) was > 100 µM (inactive), the GI50 (SK-OV-3) was > 100 µM (inactive) and the GI50 (SN12C) was > 100 µM (inactive). The GI50 (SNB-19) was > 100 µM (inactive), the GI50 (SR) was > 100 µM (inactive) and the GI50 (SW-620) was > 100 µM (inactive). For the same compound, the GI50 (T47D) was > 100 µM (inactive), the GI50 (TK-10) was > 100 µM (inactive) and the GI50 (U-251) was > 100 µM (inactive). For the same compound, the GI50 (UACC-257) was > 100 µM (inactive), the GI50 (UACC-62) was > 100 µM (inactive) and the GI50 (UO-31) was 58.5 µM (inactive).
`COc1ccc(/C=C/C=C2C(=O)NC(=S)NC2=O)cc1` was tested, and the GI50 (786-0) was 2.35 µM (inactive), the GI50 (A498) was 33.9 µM (inactive) and the GI50 (A549) was 20.3 µM (inactive). For the same compound, the GI50 (ACHN) was 5.08 µM (inactive), the GI50 (BT-549) was 2.05 µM (inactive) and the GI50 (CAKI-1) was 9.95 µM (inactive). The GI50 (CCRF-CEM) was 1.59 µM (inactive), the GI50 (COLO 205) was 3.83 µM (inactive) and the GI50 (DU-145) was 6.03 µM (inactive). For the same compound, the GI50 (EKVX) was 8.91 µM (inactive), the GI50 (HCC 2998) was 8.15 µM (inactive) and the GI50 (HCT-116) was 4.7 µM (inactive). The GI50 (HCT-15) was 3.64 µM, the GI50 (HL-60) was 0.805 µM (active) and the GI50 (HOP-62) was 19.4 µM (inactive). For the same compound, the GI50 (HOP-92) was 12.8 µM (inactive), the GI50 (HT-29) was 5.77 µM (inactive) and the GI50 (Hs-578T) was 6.44 µM (inactive). The GI50 (IGROV-1) was 3.91 µM (inactive), the GI50 (K562) was 2.21 µM (inactive) and the GI50 (KM12) was 8.79 µM (inactive). For the same compound, the GI50 (LOX IMVI) was 1.89 µM (inactive), the GI50 (M14) was 10.1 µM (inactive) and the GI50 (MCF7) was 7.74 µM (inactive). For the same compound, the GI50 (MDA-MB-231) was 2.11 µM (inactive), the GI50 (MDA-MB-435) was 2.59 µM (inactive) and the GI50 (MDA-N) was 4.07 µM (inactive). For the same compound, the GI50 (MOLT-4) was 2.64 µM (inactive), the GI50 (Malme-3M) was 3.34 µM (inactive) and the GI50 (NCI-H226) was 15.7 µM (inactive). The GI50 (NCI-H23) was 9.71 µM (inactive), the GI50 (NCI-H460) was 12.5 µM (inactive) and the GI50 (NCI/ADR-RES) was 3.3 µM (inactive). The GI50 (OVCAR-3) was 6.78 µM (inactive), the GI50 (OVCAR-4) was 31.2 µM (inactive) and the GI50 (OVCAR-5) was 21 µM (inactive). For the same compound, the GI50 (OVCAR-8) was 4.03 µM (inactive), the GI50 (PC-3) was 12.6 µM (inactive) and the GI50 (RPMI-8226) was 4.91 µM (inactive). For the same compound, the GI50 (RXF 393) was 4.35 µM (inactive), the GI50 (SF-268) was 4.68 µM (inactive) and the GI50 (SF-295) was 16.2 µM (inactive). The GI50 (SF-539) was 4.41 µM (inactive), the GI50 (SK-MEL-28) was 1.76 µM (inactive) and the GI50 (SK-MEL-2) was 16.1 µM (inactive). For the same compound, the GI50 (SK-MEL-5) was 13.3 µM (inactive), the GI50 (SK-OV-3) was 17.7 µM (inactive) and the GI50 (SN12C) was 7.35 µM (inactive). The GI50 (SNB-19) was 7.59 µM (inactive), the GI50 (SNB-75) was 17.7 µM (inactive) and the GI50 (SR) was 1.35 µM (inactive). The GI50 (SW-620) was 1.78 µM (inactive), the GI50 (T47D) was 34.9 µM (inactive) and the GI50 (TK-10) was 2.52 µM (inactive). The GI50 (U-251) was 2.16 µM (inactive), the GI50 (UACC-257) was 9.62 µM (inactive) and the GI50 (UACC-62) was 3.07 µM (inactive). The GI50 (UO-31) was 7.45 µM (inactive).
